Test results as given in patent US20220105157A1, “Compositions and Methods for Promoting Angiogenesis in the Eye” (The Regents of the University of California, priority 2019, published 2022).
Residues, ends and D or L forms follow the SMILES beside them. *: point of attachment. Cbz = O=C(OCc1ccccc1)*; CH2F = FC*

What was measured:
[1] = test system: bovine aortic endothelial (BAE) cells; test: BAE endothelial cell proliferation assay (alamar blue); assay type: cell-based; conditions: for rescue of the cell death phenotype induced by LIF: BAE cells, co-incubation with inhibitor; for reversal of LIF-induced growth inhibition in BAE cells: pre-incubation with inhibitor 1 hour, LIF 10 ng/ml, 6 days
Procedure: (§1) The bovine endothelial proliferation assays were performed essentially as previously described (63, 64). BCE (1×10^3 cells/well) or BRE (5×10^2 cells/well) cells were seeded in 96-well plates in the culture medium (DMEM-low glucose supplemented with 10% BCS, 2 mM glutamine and antibiotics) plus testing materials with a total volume of 200 μl per well. BAE cells were plated in 96-well plates at a density of 2×10^3 cells in the culture medium (DMEM-low glucose supplemented with 1% BCS and antibiotics) plus testing material with a total volume of 200 μl per well. HRME cells were seeded at a density of 1×10^3 cells/well in gelatin-coated 96-well plates in assay medium (DMEM-low glucose supplemented with 20% FBS and antibiotics) plus testing materials to make a total volume 200 μl per well. For assays involving antibodies or small-molecule inhibitors, inhibitors or vehicle controls were first added and then test materials were added one hour later. After 6 days (unless otherwise specified), cells were incubated with alamar blue for 4 h. Fluorescence was measured at 530 nm excitation wavelength and 590 nm emission wavelength. Each experiment was carried out in duplicate/triplicate and repeated at least three times.

[2] = test system: phosphorylation of STAT3, ERK and AKT in BCE cells; test: Western blotting of LIF signaling in BCE cells; assay type: cell-based, bovine; conditions: pre-incubation 1 hour (baricitinib 2 μM, cobimetinib 150 nM, BEZ235 5 nM); for effect on AKT phosphorylation: with or without LIF 10 ng/ml 15 minutes
Procedure: (§2) BCE and BAE cells were cultured in growth medium overnight. Growth medium was removed and then cells were washed twice with PBS. Recombinant human LIF was added to cells for 15 minutes, following 3-hour incubation in the following medium: DMEM-low glucose supplemented with 10% BCS, 2 mM glutamine and antibiotics for BCE cells, and DMEM-low glucose supplemented with 1% BCS and antibiotics for BAE cells. […] Cells were then lysed with RIPA lysis buffer (Life Technologies, CAT #89901) plus protease and phosphatase inhibitor cocktail (ThermoFisher Scientific CAT #78440). Protein concentrations in cell lysates were measured with the BCA assay (ThermoFisher Scientific CAT #23227). Equal amount of proteins were subjected to electrophoresis in NuPAGE 4-12% Bis-Tris gels (ThermoFisher Scientific, CAT #NW04125BOX) and then transferred onto PVDF membranes. Membranes were blocked with 5% non-fat milk in TBST at room temperature for 1 hour, incubated with primary antibodies indicated below in TBST containing 0.5% non-fat milk at 4° C. overnight then with secondary HRP-conjugated antibodies (1:2000, GE Healthcare) at room temperature for 1 h. Signals were developed with SuperSignal™ West Pico PLUS Chemiluminescent Substrate (ThermoFisher Scientific). Primary antibodies used: anti-phospho-STAT3 (Cell Signaling, CAT #9131, 1:3000), anti-STAT3 (Cell Signaling, CAT #4904, 1:3000), anti-phospho-ERK (Cell Signaling, CAT #4376, 1:5000), anti-ERK (Cell Signaling, CAT #4695, 1:5000), anti-phospho-AKT Ser473 (Cell Signaling, CAT #4060, 1:2000), anti-AKT (Cell Signaling, CAT #4691, 1:2000) and HRP-conjugated anti-beta-actin (Sigma, CAT #AC-15, 1; 10000).

[3] = test system: bovine choroidal endothelial (BCE) cells; test: BCE endothelial cell proliferation assay (alamar blue); assay type: cell-based; design: key to BCE cell growth normalized to the vehicle control group: ns, not statistically significant; conditions: for effect on LIF-induced BCE cell growth: pre-incubation with inhibitor 1 hour, LIF 10 ng/ml, 6 days; for BCE cell growth normalized to the vehicle control group: day 6, n = 3
Procedure: as §1

[4] = test system: phosphorylation of STAT3, ERK and AKT in BAE cells; test: Western blotting of LIF signaling in BAE cells; assay type: cell-based, bovine; conditions: pretreatment 1 hour (baricitinib 2 μM, cobimetinib 150 nM, BEZ235 5 nM), LIF 10 ng/ml 15 minutes
Procedure: as §2

[5] = test system: retinal vasculature of mouse eyes; test: Intravitreal injection of recombinant proteins in mouse eyes, retinal vessel density; assay type: in vivo; conditions: after exposure to 95° C. for 2 hours
Procedure: Male C57BL/6J mice (6-8 week and P5) were anesthetized with ketamine/Xylazine cocktail. The indicated amounts of recombinant LIF (Sigma, CAT #SRP9001) in 1 μl of PBS and PBS vehicle control were injected intravitreally with a 33-gauge Hamilton syringe. Seven (for adult mice) or 3 (for neonatal mice) days after injection, animals were euthanized, eyes were then enucleated and fixed in 4% paraformaldehyde (PFA) for 15 min. Choroid-sclera complexes and retinas were separated and anti-CD31 immunofluorescence (IF) or lectin labeling was performed to evidence the vasculature by whole mount staining of both retina and choroidal tissues or flat-mounts of retina. For CD31 IF, rat anti-mouse antibody (BD Biosciences, CAT #550274) was diluted 1:100 and incubated overnight at 4° C. After 4-hour incubation with the Alexa Fluor-488-conjugated anti-rat antibody (Life Technologies, CAT #A11006), whole mounts were imaged via the 488 nm channel using Keyence Microscope BZ-X710 (Keyence Corporation, Osaka, Japan) or A1R Confocal STORM super-resolution system (Nikon). For lectin staining, Dylight-488-labeled lectin (Vector Laboratories, CAT #DL-1174) was diluted at 1:200 and images were obtained using A1R Confocal STORM super-resolution system (Nikon). For Quantification of vascular density in choroids and retina was carried out by Image J. Student's t test was used for statistical analysis. Each experiment was repeated three times with similar results each time, and each treatment group consists of 4 or 5 individual samples in every experiment. All animal experimental procedures were approved by the Institutional Animal Care and Use Committee (IACUC) of the University of California San Diego and conducted in accordance with the guidelines of the Animal Care Program (ACP).
Optical coherence tomography angiography (OCTA) imaging of the retina of adult mice was performed 7 days after LIF injection, using a 1300 nm optical coherence tomography (OCT) system developed by Dr. R. K. Wang's group at University of Washington Seattle, in agreement with previously described methodology (66). Briefly, the swept laser operated in single longitude mode with a 90 nm bandwidth centered at 1300 nm and 200 kHz A-line rate was used to scan mouse retina and to generate images of vasculature in a field of view of 1.5×1.5 mm^2. 2500 B-frames were captured at 500 cross-sections with five repeated B-frames at each cross-section. To quantify the retinal vascular density, retinal and choroidal layers in 3D structure OCT scans were separated by the hyper-reflecting retinal pigment epithelium (RPE). Then the en face maximum intensity projection was generated. The vessel density was then determined by calculating the percentages of vessel-covered area in total area of view using the ImageJ software.

Cl.Nc1cccc2c(=O)[nH]ccc12 [5-AIQ, 5-AIQ hydrochloride]
rescue of the cell death phenotype induced by LIF [1]: not able rescue

Cn1c(=O)n(-c2ccc(C(C)(C)C#N)cc2)c2c3cc(-c4cnc5ccccc5c4)ccc3ncc21 [BEZ235, reference compound]
effect on AKT phosphorylation [2]: only moderate effects
effect on LIF-induced BCE cell growth [3]: no effect
effect on LIF-induced phosphorylation of AKT [4]: effectively repressed

CCCNC(=O)[C@H]1O[C@@H]1C(=O)N[C@H](C(=O)N1CCC[C@H]1C(=O)O)[C@@H](C)CC [CA074, CA-074]
suppression of LIF-induced effects in BAE cells ([1]; even at the highest dose tested, 50 μM): not able to suppress

CCCNC(=O)[C@H]1O[C@@H]1C(=O)N[C@H](C(=O)N1CCC[C@H]1C(=O)OC)[C@@H](C)CC [CA074me, CA-074 me]
reversal of LIF-induced growth inhibition in BAE cells [1]: alleviated LIF-induced growth inhibition

O=C(NCc1ccccc1)[C@H](Cc1ccccc1)NC(=O)[C@@H]1O[C@@H]1C(=O)NCCc1ccc(O)cc1 [CAA0225]
reversal of LIF-induced growth inhibition in BAE cells [1]: repressed LIF-induced growth inhibition in BAE cells although by less extent

COC(=O)C[C@H](NC(=O)[C@@H](NC(=O)c1ccc2ccccc2n1)C(C)C)C(=O)COc1c(F)cccc1F [Q-VD-OPH, Q-VD(OMe)-OPh]
rescue of the cell death phenotype induced by LIF [1]: not able rescue

COC(=O)CC[C@H](NC(=O)[C@H](CC(=O)OC)NC(=O)OCc1ccccc1)C(=O)N[C@H](C(=O)N[C@@H](CC(=O)OC)C(=O)CF)C(C)C [Z-DEVD-fmk, Z-DEVD-FMK]
rescue of the cell death phenotype induced by LIF [1]: not able rescue

COC(=O)C[C@H](NC(=O)[C@H](C)NC(=O)[C@@H](NC(=O)OCc1ccccc1)C(C)C)C(=O)CF [Z-VAD-fmk, Z-VAD-FMK] (Cbz-Val-Ala-Asp(OMe)-CH2F)
rescue of the cell death phenotype induced by LIF [1]: not able rescue

O=C(c1ccc(F)c(F)c1Nc1ccc(I)cc1F)N1CC(O)([C@@H]2CCCCN2)C1 [cobimetinib]
effect on LIF-induced phosphorylation of ERK MAPK ([2]; then LIF 10 ng/ml 15 minutes): blocked
effect on LIF-induced phosphorylation of STAT3 ([2]; then LIF 10 ng/ml 15 minutes): no effects
effect on AKT phosphorylation [2]: no effects
effect on LIF-induced BCE cell growth [3]: minimal effects
effect on LIF-induced phosphorylation of ERK [4]: effectively repressed

IGFBP3: recombinant IGFBP3, a secreted protein previously shown to be an angiogenesis inhibitor
BAE cell growth [1]: had no effects

IL-8: recombinant human IL-8
stimulation of BCE cell growth (mitogenic activity) [3]: fail to stimulate BCE cell growth
BCE cell growth normalized to the vehicle control group ([3]; 1 ng/ml): ns
BCE cell growth normalized to the vehicle control group ([3]; 3 ng/ml): ns
BCE cell growth normalized to the vehicle control group ([3]; 10 ng/ml): ns
BCE cell growth normalized to the vehicle control group ([3]; 30 ng/ml): ns
BCE cell growth normalized to the vehicle control group ([3]; 100 ng/ml): ns
BCE cell growth normalized to the vehicle control group ([3]; 300 ng/ml): ns

PDGF-AA: recombinant human PDGF-AA
stimulation of BCE cell growth (mitogenic activity) [3]: fail to stimulate BCE cell growth
BCE cell growth normalized to the vehicle control group ([3]; 1 ng/ml): ns
BCE cell growth normalized to the vehicle control group ([3]; 3 ng/ml): ns
BCE cell growth normalized to the vehicle control group ([3]; 10 ng/ml): ns
BCE cell growth normalized to the vehicle control group ([3]; 30 ng/ml): ns
BCE cell growth normalized to the vehicle control group ([3]; 100 ng/ml): ns
BCE cell growth normalized to the vehicle control group ([3]; 300 ng/ml): ns

heat-inactivated LIF: recombinant LIF heat-inactivated by exposure to 95° C. for 2 hours
ability to promote mitogenesis in vitro ([3]; after exposure to 95° C. for 2 hours): abolished
ability to promote angiogenesis in vivo [5]: abolished
